Measured values taken from US20140051661A1, “NOVEL LIPOGENIC INHIBITORS AND USES THEREOF” (The Texas A&M University System, priority 2011, published 2014).

Assays:
[1] = tested on: FAO cells; assay: Palmitate synthesis rate in FAO cells (deuterium enrichment, GC/MS); format: cell-based, rat; details: 20 μM, 12 hours, 100 nM insulin
Experimental: (§1) HepG2 and FAO cells as well as primary rat hepatocytes were cultured at 37° C. and 5% CO2 in Dulbecco's modified Eagle's medium (DMEM; Sigma, St. Louis, Mo.), supplemented with […] of penicillin-streptomycin (P/S, GIBCO-BRL), 10% fetal bovine serum (FBS, Hyclone) and 20 mM glutamine. Primary rat hepatocytes were isolated using a method as described previously (20), and plated onto collagen-coated 6-cm dishes (3×10^6 cell/dish) in DMEM containing 10% FBS; […] P/S, 20 mM glutamine, 100 nM insulin and 1 μM dexamethasone. After 4 hours of culture, non-adherent cells were washed away with 1×PBS. The remaining hepatocytes were cultured or treated in regular DMEM medium. Fatty acids and cholesterol synthesis rate was, determined using the deuterium enrichment method followed by GC/MS analysis. Briefly, cells were cultured in regular DMEM medium containing 10% 2H2O for 18 hours. Fatty acids and cholesterol were purified by extraction with organic solvents chloroform/methanol and quantitatively measured by GC/MS. The synthesis rates were presented as the percentage of ^2H-containing palmitate or cholesterol in total amount of palmitate or cholesterol.

[2] = tested on: HepG2 cells; assay: Cytotoxicity in HepG2 cells; format: cell-based, human; details: data not shown
[3] = Toxic responses in mice under standard chow, osmotic pumps; format: in vivo; details: one week, total of 0.6 mg/g body weight by osmotic pumps
[4] = tested on: 293 cells; assay: Cytotoxicity in 293 cells; format: cell-based; details: 0.1 mM BF-102; data not shown
[5] = tested on: FAO cells; assay: Cholesterol synthesis rate in FAO cells (deuterium enrichment, GC/MS); format: cell-based, rat; details: 20 μM, 12 hours, 100 nM insulin
Experimental: as §1

[6] = tested on: HepG2 cells; assay: Cholesterol synthesis in HepG2 cells (deuterated water GC/MS); format: cell-based, human; details: 20 μM, 12 hours
Experimental: (§2) Quantitative measurement of fatty acids and cholesterol synthesis Fatty acids and cholesterol synthesis rate was determined using the deuterated water—GC/MS method as described previously.

[7] = tested on: HMG-CoA reductase (HMGCR) mRNA; assay: HMG-CoA reductase mRNA levels in HepG2 cells by quantitative RT-PCR; format: cell-based, human; details: 6 hours; for HMG-CoA reductase mRNA levels: 0.03 mM compound
Experimental: (§3) HepG2, HEK293 cells, and MEFs were cultured at 37° C. and 5% CO2 in Dulbecco's modified Eagle's medium (DMEM; Sigma), supplemented with […] of penicillin-streptomycin (GIBCO-BRL), 10% (or otherwise indicated) fetal bovine serum (Hyclone), and 20 mM Glutamine.
(§4) Total RNA was extracted from cells with Trizol (Invitrogen, Carlsbad, Calif.) and quantified with an Agilent 2100 Bioanalyzer (Agilent Technologies, Santa Clara, Calif.). For mRNA quantification, 2 ug of RNA was converted to cDNA with a High Capacity cDNA Reverse Transcription kit (Applied Biosystems, Foster City, Calif.), and transcript levels of relevant genes were determined by real-time, quantitative PCR with an ABI 7300 Real Time PCR machine according to the manufacturers instructions.
(§5) HepG2 and FAO cells as well as primary rat hepatocytes were cultured at 37° C. and 5% CO2 in Dulbecco's modified Eagle's medium (DMEM; Sigma, St. Louis, Mo.), supplemented with […] of penicillin-streptomycin (P/S, GIBCO-BRL), 10% fetal bovine serum (FBS, Hyclone) and 20 mM glutamine. Primary rat hepatocytes were isolated using a method as described previously (20), and plated onto collagen-coated 6-cm dishes (3×10^6 cell/dish) in DMEM containing 10% FBS; […] P/S, 20 mM glutamine, 100 nM insulin and 1 μM dexamethasone. After 4 hours of culture, non-adherent cells were washed away with 1×PBS. The remaining hepatocytes were cultured or treated in regular DMEM medium.
(§6) Total RNA was extracted from cells with Trizol (Invitrogen, Life Technologies, Carlsbad, Calif.) and quantified with an Agilent 2100 Bioanalyzer. For mRNA quantification, 2 μg of RNA was converted to cDNA with a High Capacity cDNA Reverse. Transcription kit (Applied Biosystems, Foster City, Calif.), and transcript levels of relevant genes were determined by real-time, quantitative PCR with an ABI 7300 Real Time PCR machine according to the manufacturer's instructions. (PCR primer information is available upon request)

[8] = tested on: HepG2 cells; assay: Palmitate synthesis in HepG2 cells (deuterated water GC/MS); format: cell-based, human; details: HepG2 cells as printed
Experimental: as §2

[9] = tested on: FAS mRNA; assay: Hepatic FAS mRNA in HFD-fed mice by qRT-PCR; format: in vivo, C57BL/6J mice; details: 0.3 mg/g body weight, 1 week, osmotic pumps
Experimental: (§7) Male C57BI/6J mice were purchased from The Jackson Laboratory at 8 weeks of age and were rendered insulin resistant by feeding an HFD (60% kcal from fat; D12492, Research Diets) for 4 weeks. Then the treatment with BF-102 or BF175 was performed for 1 week (osmotic pumps) or several weeks (in HFD).
as §6

[10] = tested on: fatty acid synthase (FAS) mRNA; assay: FAS mRNA levels in HepG2 cells by quantitative RT-PCR; format: cell-based, human; details: 30 μM (0.03 mM) compound, 6 hours, qRT-PCR
Experimental: as §3, §4, §5, §6

[11] = tested on: HMGCR mRNA; assay: Hepatic HMGCR mRNA in HFD-fed mice by qRT-PCR; format: in vivo, C57BL/6J mice; details: 0.3 mg/g body weight, 1 week, osmotic pumps
Experimental: as §7, §6

SMILES | synthesis rate of palmitate [1] | cytotoxicity in HepG2 cells ([2]; 0.1 mM BF-102) | toxicity to HepG2 cells ([2]; at the doses used) | toxic responses [3] | cytotoxicity in 293 cells [4] | synthesis rate of cholesterol [5] | cholesterol synthesis [6] | HMG-CoA reductase mRNA levels [7] | mRNA levels of HMGCR, dose dependence ([7]; indicated concentrations) | palmitate synthesis [8] | hepatic FAS mRNA levels [9] | FAS mRNA levels [10] | FAS mRNA levels ([10]; listed as BF-02) | reduction of hepatic mRNA levels of HMGCR vs DMSO controls [11] [fold]
CC1(C)OB(c2ccc(C=Cc3ccc(O)cc3)cc2)OC1(C)C [BF-102, 4-{2-[4-(4,4,5,5-Tetramethyl-[1,3,2]dioxaborolan-2-yl)-phenyl]-vinyl}-phenol] | significantly decrease | no significant cytotoxicity | not toxic | no apparent toxic responses | no significant cytotoxicity | dramatically decrease | inhibits | strong inhibition | dose-dependently decrease | inhibits | significantly down regulated | strong inhibition | significant decrease | ~5
CC1(C)OB(c2ccc(C=Cc3cc(Cl)cc(Cl)c3)cc2)OC1(C)C [MD131, 3,5-dichloro-4/-(4,4,5,5-Tetramethyl-1,3,2-dioxaborolan-2-yl)stilbene] | – | – | – | – | – | – | – | strong inhibition | – | – | – | strong inhibition | – | –
